Experimental data from patent US20250115578A1, “AROMATIC FUSED RING NAV1.8 INHIBITOR, AND USE THEREOF” (CHENGDU KANGHONG PHARMACEUTICAL CO., LTD., priority 2022, published 2025).
In brackets after ≈: the same amount, converted by molar mass. Where two headings read alike, the source gives them in different places.

Columns and labels:
[1] = Assay of kinetic solubility; assay type: physicochemical; conditions: aqueous buffer, kinetic from dmso stock, pH 3.5 phosphate buffer, 25° C.
Procedure: The stock solutions of the test compound and the standard progesterone were prepared in DMSO at the concentration of 10 mM.
30 μL of stock solutions at 10 mM of the test compounds and standard substance were placed in order into their proper 96-well plate. 970 μL phosphate buffer at the specified pH was added to the proper vial of the sample plate. The assay was performed in duplicate. A stirring stick was added to each vial and the teflon/silicone plug was capped. The sample tray was then placed in the Eppendorf Thermomixer Comfort and shaken at 1100 RPM at 25° C. for 2 hours. After 2 hours, plugs were removed, a big magnet was used to remove the stirring sticks, and samples were transferred from the sample plate to the filter plate. Vacuum pump was used to create negative pressure and filtered the samples. Transferred 5 μL of the filtrate to the new sample plate, then added 5 μL DMSO and 490 μL water/acetonitrile (V/V=1/1) to dilute the solvent. The dilution factor may be adjusted according to the solubility values of the substances to be tested or the strength of its LC-MS signal response.
From the 10 mM DMSO stock solution, 15 μL of that was transferred into the empty plate and 485 μL DMSO was added to prepare a 300 μM standard solution. From the 300 μM standard solution plate, 5 μL of that was transferred to another empty plate and 5 μL phosphate buffer at specified pH and 490 μL water/acetonitrile (V/V=1/1) dilution solvent were added to the standard solution to get a final concentration of 3 μM. The concentration of the standard solution may be adjusted according to the strength of its LC-MS signal response.
The sample plate was placed into the sample tray of the automatic sampler and the samples were evaluated by LC-MS/MS analysis.
All calculations were carried out by Microsoft Excel.
The sample filtrate was analyzed and quantified against a standard of known concentrations using LC-MS spectral peaks to identify and quantify. The solubility values of the control drug and the compounds to be tested were calculated as the following formula: • [Sample]: concentration of the sample • AREASample: peak area of the sample • INJ VOLStd: standard sample injection volume • DFSample: sample dilution factor • [STD]: standard substance concentration • AREAStd: peak area of standard substance • INJ VOLSample: sample injection volume

hNav1.8 = hNav1.8 (Homo sapiens (Human), UniProt Q9Y5Y9); experiment: Manual patch clamp, Method 1 (CHO cell line stably expressing hNav1.8); assay type: cell-based; conditions: for inhibition at 0.01 µM / inhibition at 0.1 µM: read-out: Inhibition rate of hNav1.8; for IC50: Method 1, CHO-hNav1.8, manual patch clamp, resting state, read-out: IC50 inhibitory activity against hNav1.8; for inhibition at 0.1 µM: 100 nM
Chain of hNav1.8 (Q9Y5Y9 whole entry): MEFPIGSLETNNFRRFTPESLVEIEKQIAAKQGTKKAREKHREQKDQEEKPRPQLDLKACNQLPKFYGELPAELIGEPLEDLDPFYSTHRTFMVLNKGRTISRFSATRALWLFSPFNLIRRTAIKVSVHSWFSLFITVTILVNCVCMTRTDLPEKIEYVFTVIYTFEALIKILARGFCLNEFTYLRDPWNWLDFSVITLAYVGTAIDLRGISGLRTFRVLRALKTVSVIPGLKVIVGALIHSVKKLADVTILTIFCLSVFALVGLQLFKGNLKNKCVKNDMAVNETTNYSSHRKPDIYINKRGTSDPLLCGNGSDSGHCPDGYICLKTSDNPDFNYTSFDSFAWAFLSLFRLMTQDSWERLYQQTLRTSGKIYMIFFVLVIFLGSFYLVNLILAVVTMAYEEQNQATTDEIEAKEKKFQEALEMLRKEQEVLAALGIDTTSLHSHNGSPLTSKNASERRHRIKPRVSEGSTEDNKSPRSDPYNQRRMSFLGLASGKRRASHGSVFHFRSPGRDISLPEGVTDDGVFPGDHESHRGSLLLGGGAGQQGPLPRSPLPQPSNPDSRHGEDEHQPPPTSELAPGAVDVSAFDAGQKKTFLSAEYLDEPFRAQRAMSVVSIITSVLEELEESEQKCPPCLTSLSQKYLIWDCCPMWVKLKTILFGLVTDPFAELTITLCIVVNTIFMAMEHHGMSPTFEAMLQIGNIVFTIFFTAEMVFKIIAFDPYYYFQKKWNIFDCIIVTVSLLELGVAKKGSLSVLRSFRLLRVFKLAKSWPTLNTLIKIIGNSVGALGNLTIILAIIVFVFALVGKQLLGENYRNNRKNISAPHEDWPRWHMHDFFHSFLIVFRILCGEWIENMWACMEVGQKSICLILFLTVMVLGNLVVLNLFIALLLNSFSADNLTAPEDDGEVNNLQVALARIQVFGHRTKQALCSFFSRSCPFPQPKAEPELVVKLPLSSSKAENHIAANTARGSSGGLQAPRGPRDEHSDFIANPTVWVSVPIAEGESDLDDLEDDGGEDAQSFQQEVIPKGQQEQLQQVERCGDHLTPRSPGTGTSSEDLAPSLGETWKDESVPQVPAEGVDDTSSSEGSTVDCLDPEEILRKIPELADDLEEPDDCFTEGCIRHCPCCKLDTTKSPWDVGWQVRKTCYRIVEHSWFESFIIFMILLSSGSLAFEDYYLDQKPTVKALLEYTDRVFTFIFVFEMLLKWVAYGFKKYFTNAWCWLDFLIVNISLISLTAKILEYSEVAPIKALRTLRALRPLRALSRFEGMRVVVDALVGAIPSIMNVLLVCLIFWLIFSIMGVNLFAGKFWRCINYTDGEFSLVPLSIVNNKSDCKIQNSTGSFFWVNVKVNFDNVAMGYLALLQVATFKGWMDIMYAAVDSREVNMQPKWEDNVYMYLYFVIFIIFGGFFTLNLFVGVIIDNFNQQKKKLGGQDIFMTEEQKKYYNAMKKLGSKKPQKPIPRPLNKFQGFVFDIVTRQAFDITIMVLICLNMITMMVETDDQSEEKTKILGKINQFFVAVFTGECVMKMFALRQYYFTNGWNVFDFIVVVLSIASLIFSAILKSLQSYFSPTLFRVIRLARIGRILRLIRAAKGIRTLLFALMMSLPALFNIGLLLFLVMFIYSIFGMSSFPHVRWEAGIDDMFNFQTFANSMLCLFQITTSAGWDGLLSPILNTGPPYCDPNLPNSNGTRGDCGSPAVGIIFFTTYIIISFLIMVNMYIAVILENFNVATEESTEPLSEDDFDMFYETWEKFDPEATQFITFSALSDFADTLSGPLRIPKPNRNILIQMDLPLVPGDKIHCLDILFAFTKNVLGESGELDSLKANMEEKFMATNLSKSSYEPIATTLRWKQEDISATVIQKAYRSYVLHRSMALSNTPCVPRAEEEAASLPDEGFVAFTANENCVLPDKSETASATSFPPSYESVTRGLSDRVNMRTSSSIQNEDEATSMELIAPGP
Source text: The patch clamp technique is known as the “gold standard” for studying ion channels, and it uses glass microelectrodes to seal the cell membrane to measure the currents of various membrane channel. […] Patch clamp technology can evaluate the inhibition strength of different compounds on different states of Navs by measuring the changes of membrane channel currents after different compounds bind to different states of Navs.
The representative compounds of the present invention used stable CHO or HEK293 cell lines transfected with specific ion channels to measure the effect of the compounds on Nav1.8 currents by manual patch clamp test, to evaluate their inhibition strength.
The assay protocol of manual patch clamp is as follows:
CHO cell lines with stable expression of hNav1.8 were cultured in F12 medium containing 10% fetal bovine serum at a constant temperature of 37° C., and the carbon dioxide concentration was maintained at 5%. The old culture medium was removed and washed once with PBS, then 1 mL 0.25%-Trypsin-EDTA solution was added and incubated at 37° C. for 1 min. When the cells were detached from the bottom of the dish, 5 mL of the complete medium preheated at 37° C. was added, and the aggregated cells were separated by gently blowing with a straw. The cell suspension was transferred into a sterile centrifuge tube and centrifuged at 1000 rpm for 5 min to collect cells. The cells were then inoculated into a cell culture dish with a diameter of 6 cm (2.5×10^5 cells/petri dish, 5 mL medium) for expansion or maintenance.
In order to maintain the electrophysiological activity of the cells, the cell density must be less than 80%.
The cells were separated with 0.25%-Trypsin-EDTA before the assay, and 5×10^3 cells were seeded on a cover slip and cultured in a 24-well plate (final volume: 500 μL) for 18 h. Then the assay was conducted.
The compounds prepared in the examples of the present invention were dissolved in dimethyl sulfoxide (DMSO) and prepared into DMSO stock solution with a concentration of 10 mM for assay. And it was diluted to various concentrations with extracellular solution (140 mM NaCl, 3.5 mM KCl, 1 mM MgCl2, 2 mM CaCl2), 10 mM Glucose, 10 mM HEPES, 1.25 mM NaH2PO4, pH=7.4 regulated by NaOH), and the final concentration of DMSO in each compound sample was 0.10% or less.
A capillary glass pipette (BF150-86-10, Sutter Instruments) was pulled into a recording electrode with a micropipette puller (P97, Sutter Instruments). The micromanipulator (MP285, Sutter Instruments) was manipulated under an inverted microscope (IX71, Olympus) to make the recording electrode contact the cell and negative pressure suction was applied to achieve a GQ seal. Then, rapid capacitance compensation was performed, and negative pressure was continued, cell membrane was broken by suction, and whole cell recording mode was formed. Then the slow capacitance was compensated and the membrane capacitance and series resistance were recorded without leakage compensation. When the whole cell recording current was stabilized, dosing was initiated, and the next concentration was detected after acting 5 minutes of each drug concentration. Multiple cells were independently repeated during the recording period. All electrophysiological assays were performed at room temperature. Specifically, 6 concentrations (measuring IC50) or 2 concentrations (preliminary screening) were set for each compound, and the percentage of inhibition of sodium channels was determined by calculating the relative percentage of peak current generated before and after each concentration compound treated cells, and the IC50 value or percentage of inhibition at a specific concentration was calculated using IGOR pro software.

[2] = Stability assay for human liver microsomes in vitro; assay type: in vitro ADME; conditions: 1 μM compound, 0.5 mg/mL liver microsomes, read-out: Human liver microsome stability T1/2
Procedure: • Human liver microsomes, purchased from Corning or Xenotech, stored in a −80° C. refrigerator. • Nicotinamide adenine dinucleotide phosphate (NADPH), Chem-impex international, 00616 • Control compounds: testosterone, diclofenac, propafenone
• Water bath (HH-60, Guohua, Changzhou, China) • Pipette workstation (PP-550DS, Apricot, Covina, USA) • Centrifuge (5810R, Eppendorf, Hamburg, Germany) • Mass Spectrometer (Sciex API 4000, Singapore) • High Performance Liquid Chromatography (LC 20-AD, Shimadzu, Kyoto, Japan) • Sampler (ADDA, Apricot Designs, California, USA)
• Stock solution: 10 mM in DMSO • Working solution concentration preparation: 10 mM stock solution was diluted to 100 μM with 100% acetonitrile (organic phase content: 99% ACN, 1% DMSO)
Two 96-well incubation plates were named T60 incubation plate and NCF60 incubation plate.
445 μL microsomal working solution (liver microsomal protein concentration: 0.56 mg/mL) was added to the T60 and NCF60 incubation plates respectively, then the incubation plates above were placed in a water bath at 37° C. for pre-incubation approximately 10 minutes.
After the pre-incubation finished, 5 μL of the test compound working solution was added to the T60 and NCF60 incubation plates respectively, and mixed well. 50 μL potassium phosphate buffer was added to each well on the NCF60 incubation plate to start the reaction. 180 μL termination solution (acetonitrile solution containing 200 ng/mL tolbutamide and 200 ng/mL labetalol) and 6 uL working solution of NADPH regeneration system were added to the TO termination plate, and 54 μL samples were removed from the T60 incubation plate to the TO termination plate (TO sample generated). The reaction was initiated by adding 44 μL of NADPH regenerating system working solution per well on the T60 incubation plate. Only 54 μL microsomal working solution, 6 uL NADPH regeneration system working solution, and 180 μL termination solution were added to the Blank plate. Therefore, in the samples of the test or control compounds, the final reaction concentration of the compounds, testosterone, diclofenac and propafenone was 1 μM, the concentration of the liver microsomes was 0.5 mg/mL, and the final concentration of DMSO and acetonitrile in the reaction system was 0.01% (v/v) and 0.99% (v/v), respectively.
After incubation for an appropriate time (e.g. 5, 10, 20, 30, and 60 minutes), 180 μL of termination solution (acetonitrile solution containing 200 ng/mL tolbutamide and 200 ng/mL labetalol) was added to the sample hole of each termination plate, respectively. After that, 60 μL sample was removed from the T60 incubation plate to terminate the reaction.
All sample plates were shaken evenly and centrifuged at 3220×g for 20 min. Then 80 μL supernatant was taken from each well and diluted to 240 μL pure water for LC-MS/MS analysis.
All samples were injected for analysis.

Human Nav1.8 ion channel = Human Nav1.8 ion channel (Homo sapiens (Human), UniProt Q9Y5Y9); experiment: Manual patch clamp, Method 2 (HEK293 cells stably expressing human Nav1.8, resting state); assay type: cell-based; conditions: Method 2, HEK293-hNav1.8, resting state, 1 μM TTX; read-out: IC50 inhibitory activity against hNav1.8

SMILES | solubility kinetic at 2 h [1] | inhibition at 0.01 µM (hNav1.8; CHO) | IC50 (hNav1.8) | half-life at 1 µM [2] | inhibition at 0.01 µM (hNav1.8; 10 nM, Method 1, CHO-hNav1.8) | IC50 (Human Nav1.8 ion channel) | inhibition at 0.1 µM (hNav1.8; Method 1, CHO-hNav1.8)
NS(=O)(=O)c1cc(NC(=O)c2nc3ccccc3nc2N2CCCC(F)(F)CC2)ccn1 [Example 06, 3-(4,4-difluoroazepan-1-yl)-N-(2-sulfamoylpyridin-4-yl)quinoxaline-2-carboxamide] | 0.39 µM (≈ 0.18 µg/mL) | 77.6% | 3.1 nM | > 2.42 h | – | – | –
NC(=O)c1cccc(NC(=O)c2nc3ccccc3nc2N2CCCC(F)(F)CC2)c1 [Example 07, N-(3-carbamoylphenyl)-3-(4,4-difluoroazepan-1-yl)quinoxaline-2-carboxamide] | 52.7 µM (≈ 22.4 µg/mL) | – | 14.7 nM | 1.06 h | 48.3% | – | –
NC(=O)c1cc(NC(=O)c2cc3ccccc3nc2N2CCCC(F)(F)CC2)ccc1F [Example 09, N-(3-carbamoyl-4-fluorophenyl)-2-(4,4-difluoroazepan-1-yl)quinoline-3-carboxamide] | 157 µM (≈ 69.6 µg/mL) | – | 1 nM | 0.372 h | 91.3% | 0.918 nM | –
Cc1ccc2cc(C(=O)Nc3ccnc(C(N)=O)c3)c(N3CCCC(F)(F)CC3)nc2c1 [Example 23, N-(2-carbamoylpyridin-4-yl)-2-(4,4-difluoroazepan-1-yl)-7-methylquinoline-3-carboxamide] | – | – | – | – | – | 1.5 nM | 97.2%
COc1cc2cc(C(=O)Nc3ccnc(C(N)=O)c3)c(N3CCCC(F)(F)CC3)nc2cc1OC [Example 24, N-(2-carbamoylpyridin-4-yl)-2-(4,4-difluoroazepan-1-yl)-6,7-dimethoxyquinoline-3-carboxamide] | 9.88 µM (≈ 4.8 µg/mL) | – | – | > 2.42 h | – | 97.1 nM | 51%
CS(=N)(=O)c1cc(NC(=O)c2cc3ccccc3nc2N2CCCC(F)(F)CC2)ccn1 (centres unmarked) [Example 26, 2-(4,4-difluoroazepan-1-yl)-N-(2-(S-methylsulfonimidoyl)pyridin-4-yl)quinoline-3-carboxamide] | 127 µM (≈ 58.4 µg/mL) | – | – | 1.17 h | – | 8 nM | 91.5%
CS(=N)(=O)c1cc(NC(=O)c2cc3cc(F)c(F)cc3nc2N2CCCC(F)(F)CC2)ccn1 (centres unmarked) [Example 27, 2-(4,4-difluoroazepan-1-yl)-6,7-difluoro-N-(2-(S-methylsulfonimidoyl)pyridin-4-yl)quinoline-3-carboxamide] | 78.8 µM (≈ 39 µg/mL) | – | – | 2.26 h | – | – | 97%
CNS(=O)(=O)c1cc(NC(=O)c2cc3ccccc3nc2N2CCCC(F)(F)CC2)ccn1 [Example 28, 2-(4,4-difluoroazepan-1-yl)-N-(2-(N-methylsulfamoyl)pyridin-4-yl)quinoline-3-carboxamide] | 131 µM (≈ 62.3 µg/mL) | – | – | – | – | 11.4 nM | 94.2%
NS(=O)(=O)c1cccc(NC(=O)c2cc3ccccc3nc2Oc2ccc(F)cc2Cl)c1 [Example 30, 2-(2-chloro-4-fluorophenoxy)-N-(3-sulfamoylphenyl)quinoline-3-carboxamide, reference compound] | < 0.18 µM | – | – | – | – | 9.5 nM | 94%
Cc1cc(F)ccc1Oc1cc(C(F)(F)F)ccc1C(=O)Nc1cc[nH]c(=O)c1 [Example 32, 2-(4-fluoro-2-methylphenoxy)-N-(2-carbonyl-1,2-dihydropyridin-4-yl)-4-(trifluoromethyl)benzamide, reference compound] | < 1.56 µM | – | – | – | 38.1% | – | 84.7%
